Where two headings read alike, the source gives them in different places.
Key:
Assay type in all cases: cell-based
[1] = tested on: Alternaria solani; assay: Microtest against early blight caused by Alternaria solani (Alteso); conditions: solo product
[2] = tested on: Septoria tritici; assay: Microtest against leaf blotch on wheat caused by Septoria tritici (Septtr); conditions: solo product
[3] = tested on: Botrytis cinerea; assay: Microtiterplate test against the grey mold Botrytis cinerea (Botrci); conditions: solo product
[4] = tested on: Pyricularia oryzae; assay: microbe, parasite or virus in culture; conditions: for Observed efficacy: solo product
[5] = tested on: Leptosphaeria nodorum; assay: Microtest against wheat leaf spots caused by Leptosphaeria nodorum (Leptno); conditions: solo product
[6] = Alternaria solani, 168 h, 4 ppm, read-out: Observed efficacy
[7] = Alternaria solani, 168 h, 16 ppm, read-out: Observed efficacy
[8] = Botrytis cinerea, 168 h, 0.016 ppm, read-out: Observed efficacy
[9] = Alternaria solani, 168 h, 0.001 ppm, read-out: Observed efficacy
[10] = Alternaria solani, 168 h, 0.004 ppm, read-out: Observed efficacy
[11] = Alternaria solani, 168 h, 0.016 ppm, read-out: Observed efficacy
[12] = Pyricularia oryzae, 168 h, read-out: Observed efficacy
[13] = Botrytis cinerea, 168 h, 4 ppm, read-out: Observed efficacy
[14] = Botrytis cinerea, 168 h, 16 ppm, read-out: Observed efficacy

## COC(=O)Nc1nc2ccccc2[nH]1 [II-8, carbendazim, reference compound]
[1]; [6]
  inhibition of growth at 4 ppm: 7%
[1]; [7]
  inhibition of growth at 16 ppm: 10%
[1]; Alternaria solani, 168 h, 63 ppm, read-out: Observed efficacy
  inhibition of growth at 63 ppm: 34%
[2]; Zymoseptoria tritici, 168 h, 16 ppm, read-out: Observed efficacy
  inhibition of growth at 16 ppm: 16%
[3]; Botrytis cinerea, 168 h, 0.004 ppm, read-out: Observed efficacy
  inhibition of growth at 0.004 ppm: 5%
[3]; [8]
  inhibition of growth at 0.016 ppm: 3%

## CC1(C)CC/C(=C\c2ccc(Cl)cc2)C1(O)Cn1cncn1 (centres unmarked) [Triticonazol]
[4]; 1 ppm
  Observed efficacy: 1
[4]; 4 ppm
  Observed efficacy: 59

## CCC(=O)C1=C([O-])CC(C(=O)[O-])CC1=O.[Ca+2] (centres unmarked) [Prohexadion-ca]
[1]; 4 ppm
  Observed efficacy: 6
[1]; 16 ppm
  Observed efficacy: 2
[2]; 63 ppm
  Observed efficacy: 15
[3]; 4 ppm
  Observed efficacy: 10
[3]; 16 ppm
  Observed efficacy: 5
[3]; 63 ppm
  Observed efficacy: 4
[4]; 4 ppm
  Observed efficacy: 2
[4]; 16 ppm
  Observed efficacy: 2
[4]; 63 ppm
  Observed efficacy: 3

## Cc1ccc(C(C)NC(=O)[C@@H](NC(=O)OC(C)C)C(C)C)cc1 (some centres unmarked) [II-51, iprovalicarb, reference compound]
[1]; 4 ppm
  Observed efficacy: 1
[1]; 16 ppm
  Observed efficacy: 2
[1]; 63 ppm
  Observed efficacy: 1
[3]; 4 ppm
  Observed efficacy: 2
[3]; 16 ppm
  Observed efficacy: 3
[3]; 63 ppm
  Observed efficacy: 6
[4]; 4 ppm
  Observed efficacy: 0
[5]; 16 ppm
  Observed efficacy: 19

## CC(C)C(O)(Cn1cncn1)c1ccc(Oc2ccc(Cl)cc2)cc1Cl (centres unmarked) [I-19, 2-[2-chloro-4-(4-chlorophenoxy)phenyl]-3-methyl-1-(1,2,4-triazol-1-yl)butan-2-ol]
[1]; [9]
  inhibition of growth at 0.001 ppm: 1%
[1]; [10]
  inhibition of growth at 0.004 ppm: 0%
[1]; [11]
  inhibition of growth at 0.016 ppm: 0%
[1]; Alternaria solani, 168 h, 0.063 ppm, read-out: Observed efficacy
  inhibition of growth at […]: 25%
[2]; Zymoseptoria tritici, 168 h, 0.000016 ppm, read-out: Observed efficacy
  inhibition of growth at 1.6e-05 ppm: 12%
[2]; Zymoseptoria tritici, 168 h, 0.001 ppm, read-out: Observed efficacy
  inhibition of growth at 0.001 ppm: 20%
[2]; Zymoseptoria tritici, 168 h, […], read-out: Observed efficacy
  inhibition of growth at 6.3e-05 ppm: 13%
[3]; [8]
  inhibition of growth at 0.016 ppm: 20%
[3]; Botrytis cinerea, 168 h, 0.063 ppm, read-out: Observed efficacy
  inhibition of growth at […]: 29%
[5]; Parastagonospora nodorum, 168 h, 0.25 ppm, read-out: Observed efficacy
  inhibition of growth at […]: 64%

## Cn1cc(C(=O)Nc2ccc(F)cc2-c2ccc(Cl)c(Cl)c2)c(C(F)F)n1 [II-6, bixafen, reference compound]
[1]; 0.001 ppm
  Observed efficacy: 5
[1]; 0.004 ppm
  Observed efficacy: 38
[3]; 0.016 ppm
  Observed efficacy: 8
[4]; 0.016 ppm
  Observed efficacy: 2

## Fc1ccc([C@]2(Cn3cncn3)O[C@H]2c2ccccc2Cl)cc1 [Epoxiconazol]
[1]; 0.004 ppm
  Observed efficacy: 5
[1]; 0.016 ppm
  Observed efficacy: 8
[2]; 0.016 ppm
  Observed efficacy: 16
[3]; 0.016 ppm
  Observed efficacy: 11

## N#Cc1c[nH]cc1-c1cccc2c1OC(F)(F)O2 [II-34, fludioxonil, reference compound]
[4]; [12]
  inhibition of growth at 0.016 ppm: 36%

## CCOC(=O)C1CC(=O)C(=C(O)C2CC2)C(=O)C1 (centres unmarked) [II-3a, trinexapac-ethyl, reference compound]
[1]; [6]
  inhibition of growth at 4 ppm: 12%
[1]; [7]
  inhibition of growth at 16 ppm: 27%
[2]; Zymoseptoria tritici, 168 h, 4 ppm, read-out: Observed efficacy
  inhibition of growth at 4 ppm: 13%
[3]; [13]
  inhibition of growth at 4 ppm: 7%
[3]; [14]
  inhibition of growth at 16 ppm: 5%
[3]; Botrytis cinerea, 168 h, 63 ppm, read-out: Observed efficacy
  inhibition of growth at 63 ppm: 15%
[4]; [12]
  inhibition of growth at 4 ppm: 5%
  inhibition of growth at 16 ppm: 21%
  inhibition of growth at 63 ppm: 81%

## CC1COC(Cn2cncn2)(c2ccc(Oc3ccc(Cl)cc3)cc2Cl)O1 (centres unmarked) [Difenoconazol]
[1]; 0.004 ppm
  Observed efficacy: 5
[1]; 0.016 ppm
  Observed efficacy: 5
[2]; 0.016 ppm
  Observed efficacy: 26
[4]; 1 ppm
  Observed efficacy: 11
[5]; 0.016 ppm
  Observed efficacy: 29

## Cn1cc(C(=O)Nc2ccccc2-c2cc(F)c(F)c(F)c2)c(C(F)F)n1 [II-42, fluxapyroxad, reference compound]
[1]; 0.001 ppm
  Observed efficacy: 4

## O=C(Nc1ccccc1-c1ccc(Cl)cc1)c1cccnc1Cl [II-7, boscalid, reference compound]
[1]; [9]
  inhibition of growth at 0.001 ppm: 5%
[1]; [10]
  inhibition of growth at 0.004 ppm: 6%
[3]; Botrytis cinerea, 168 h, 0.25 ppm, read-out: Observed efficacy
  inhibition of growth at […]: 38%
[4]; [12]
  inhibition of growth at 16 ppm: 2%
[5]; Parastagonospora nodorum, 168 h, 4 ppm, read-out: Observed efficacy
  inhibition of growth at 4 ppm: 23%

## CON=C(C(=O)OC)c1ccccc1CON=C(C)c1cccc(C(F)(F)F)c1 [II-92, trifloxystrobin, reference compound]
[1]; [10]
  inhibition of growth at 0.004 ppm: 7%
[1]; [11]
  inhibition of growth at 0.016 ppm: 11%
[3]; [13]
  inhibition of growth at 4 ppm: 2%
[3]; [14]
  inhibition of growth at 16 ppm: 6%
[4]; [12]
  inhibition of growth at 0.004 ppm: 11%
  inhibition of growth at 0.016 ppm: 26%
[5]; Parastagonospora nodorum, 168 h, 0.063 ppm, read-out: Observed efficacy
  inhibition of growth at […]: 39%

— patent US20150313225A1
